# In US10144732B2 (BIOGEN MA INC., priority 2014, dated 2018):
# Counter-ions that a name gives are not always drawn.
# Molecular target: T1, Human ATX protein (Homo sapiens, UniProt Q13822)
# T1 construct: made in house
# Experiment: ATX biochemical assay (FRET, FS-3 substrate)
# Conditions: FRET assay, FS-3 2 μM, ATX 1.0 μg/mL, 30 minutes preincubation, 2 hours reaction at room temperature; read-out: IC50
# In short: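 FRET read-out: cleavage of FS-3 (2 μM final) unquenches fluorescein, measured at 485/538 nm after 2 h at room temperature. Before substrate addition, in-house-expressed human autotaxin (1.0 μg/mL) sat with compound for 30 min in pH 7.4 Tris/NaCl/KCl/CaCl2/MgCl2 buffer containing fatty acid free-BSA at 1 mg/mL.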
row,SMILES,IC50
1,"O=C(CC1CCN(c2ccncn2)CC1)N1CCc2c(C(F)(F)F)nn(Cc3ccc(F)cc3)c2C1 [Example 18-3, 1-(1-(4-Fluorobenzyl)-3-(trifluoromethyl)-4,5-dihydro-1H-pyrazolo[3,4-c]pyridin-6(7H)-yl)-2-(1-(pyrimidin-4-yl)piperidin-4-yl)ethanone TFA salt]",≤ 100 nM
2,"O=C(O)CN1CCC(C(=O)N2CCc3c(C(F)(F)F)nn(Cc4ccc(F)cc4)c3C2)C1 (stereo not drawn) [Example 15-4, 2-(3-(1-(4-Fluorobenzyl)-3-(trifluoromethyl)-4,5,6,7-tetrahydro-1H-pyrazolo[3,4-c]pyridine-6-carbonyl)pyrrolidin-1-yl)acetic acid TFA salt]",≤ 100 nM
3,"O=C(C[C@H]1CC[C@H](C(=O)O)CC1)N1CCc2c(C(F)(F)F)nn(Cc3ccsc3)c2C1 [Example 5-27, trans-4-(2-Oxo-2-(1-(thiophen-3-ylmethyl)-3-(trifluoromethyl)-4,5-dihydro-1H-pyrazolo[3,4-c]pyridin-6(7H)-yl)ethyl)cyclohexanecarboxylic acid]",≤ 100 nM
4,"O=C(CC12CCC(C(=O)O)(CC1)CC2)N1CCc2c(C(F)(F)F)nn(Cc3ccc(Cl)cc3F)c2C1 [Example 5-12, 4-(2-(1-(4-Chloro-2-fluorobenzyl)-3-(trifluoromethyl)-4,5-dihydro-1H-pyrazolo[3,4-c]pyridin-6(7H)-yl)-2-oxoethyl)bicyclo[2.2.2]octane-1-carboxylic acid]",≤ 100 nM
5,"CCOC(=O)[C@H]1CC[C@H](CC(=O)N2CCc3c(C(F)(F)F)nn(C4CCCCC4)c3C2)CC1 [Example 1-24, trans-Ethyl 4-(2-(1-cyclohexyl-3-(trifluoromethyl)-4,5-dihydro-1H-pyrazolo[3,4-c]pyridin-6(7H)-yl)-2-oxoethyl)cyclohexanecarboxylate]",250 to 500 nM
6,"O=C(O)CCN1CCC(C(=O)N2CCc3c(C(F)(F)F)nn(Cc4ccc(Cl)cc4F)c3C2)C1 (stereo not drawn) [Example 15-3, 3-(3-(1-(4-chloro-2-fluorobenzyl)-3-(trifluoromethyl)-4,5,6,7-tetrahydro-1H-pyrazolo[3,4-c]pyridine-6-carbonyl)pyrrolidin-1-yl)propanoic acid]",> 10000 nM
7,"O=C(CC1CCCNC1)N1CCc2c(C(F)(F)F)nn(Cc3ccc(F)cc3)c2C1 (stereo not drawn) [Example 9-4, 1-(1-(4-Fluorobenzyl)-3-(trifluoromethyl)-4,5-dihydro-1H-pyrazolo[3,4-c]pyridin-6(7H)-yl)-2-(piperidin-3-yl)ethanone HCl salt]",≤ 100 nM
8,"O=C(C[C@H]1CC[C@H](C(=O)O)CC1)N1CCc2c(C(F)(F)F)nn(Cc3ccc(Cl)s3)c2C1 [Example 5-17, trans-4-(2-(1-((5-chlorothiophen-2-yl)methyl)-3-(trifluoromethyl)-4,5-dihydro-1H-pyrazolo[3,4-c]pyridin-6(7H)-yl)-2-oxoethyl)cyclohexanecarboxylic acid]",≤ 100 nM
9,"O=C(O)C1CC2CN(CC(=O)N3CCc4c(C(F)(F)F)nn(Cc5ccc(Cl)cc5F)c4C3)CC2C1 (stereo not drawn) [Example 13-9, 2-(2-(1-(4-Chloro-2-fluorobenzyl)-3-(trifluoromethyl)-4,5-dihydro-1H-pyrazolo[3,4-c]pyridin-6(7H)-yl)-2-oxoethyl)octahydrocyclopenta[c]pyrrole-5-carboxylic acid TFA salt]",≤ 100 nM
10,"O=C(CC1CCNC(C(F)(F)F)C1)N1CCc2c(C(F)(F)F)nn(Cc3ccc(Cl)cc3F)c2C1 (stereo not drawn) [Example 9-7, 1-(1-(4-Chloro-2-fluorobenzyl)-3-(trifluoromethyl)-4,5-dihydro-1H-pyrazolo[3,4-c]pyridin-6(7H)-yl)-2-(2-(trifluoromethyl)piperidin-4-yl)ethanone TFA salt]",≤ 100 nM
11,"O=C(CC1CCNC(C(F)(F)F)C1)N1CCc2c(C(F)(F)F)nn(Cc3ccc(F)cc3)c2C1 (stereo not drawn) [Example 9-13, 1-(1-(4-Fluorobenzyl)-3-(trifluoromethyl)-4,5-dihydro-1H-pyrazolo[3,4-c]pyridin-6(7H)-yl)-2-(2-(trifluoromethyl)piperidin-4-yl)ethanone TFA salt]",≤ 100 nM
12,"O=C(O)C1CCN(CC(=O)N2CCc3c(C(F)(F)F)nn(Cc4ccc(F)cc4)c3C2)C1 (stereo not drawn) [Example 13-12, 1-(2-(1-(4-Fluorobenzyl)-3-(trifluoromethyl)-4,5-dihydro-1H-pyrazolo[3,4-c]pyridin-6(7H)-yl)-2-oxoethyl)pyrrolidine-3-carboxylic acid]",≤ 100 nM
13,"CCOC(=O)[C@H]1CC[C@H](CC(=O)N2CCc3c(CO)nn(Cc4ccc(F)cc4)c3C2)CC1 [Example 1-41, trans-Ethyl-4-(2-(1-(4-fluorobenzyl)-3-(hydroxymethyl)-4,5-dihydro-1H-pyrazolo[3,4-c]pyridin-6(7H)-yl)-2-oxoethyl)cyclohexanecarboxylate]",250 to 500 nM
14,"O=C(O)CC1CN(CC(=O)N2CCc3c(C(F)(F)F)nn(Cc4ccc(F)cc4)c3C2)C1 [Example 13-23, 2-(1-(2-(1-(4-Fluorobenzyl)-3-(trifluoromethyl)-4,5-dihydro-1H-pyrazolo[3,4-c]pyridin-6(7H)-yl)-2-oxoethyl)azetidin-3-yl)acetic acid TFA salt]",≤ 100 nM
15,"O=C(Cc1ccc(F)cc1)N1CCc2c(C(F)(F)F)nn(Cc3ccc(Cl)cc3F)c2C1 [Example 1-12, 1-(1-(4-Chloro-2-fluorobenzyl)-3-(trifluoromethyl)-4,5-dihydro-1H-pyrazolo[3,4-c]pyridin-6(7H)-yl)-2-(4-fluorophenyl)ethanone]",≤ 100 nM
16,"CS(=O)(=O)NC(=O)[C@H]1CC[C@H](CC(=O)N2CCc3c(C(F)(F)F)nn(Cc4ccc(F)cc4)c3C2)CC1 [Example 19-1, trans-4-(2-(1-(4-Fluorobenzyl)-3-(trifluoromethyl)-4,5-dihydro-1H-pyrazolo[3,4-c]pyridin-6(7H)-yl)-2-oxoethyl)-N-(methylsulfonyl)cyclohexanecarboxamide]",≤ 100 nM
17,"CCOc1nn(Cc2ccc(F)cc2)c2c1CCN(C(=O)C[C@H]1CC[C@H](C(=O)O)CC1)C2 [Example 5-42, trans-4-(2-(3-Ethoxy-1-(4-fluorobenzyl)-4,5-dihydro-1H-pyrazolo[3,4-c]pyridin-6(7H)-yl)-2-oxoethyl)cyclohexanecarboxylic acid]",≤ 100 nM
18,"CC1CCN(CC(=O)N2CCc3c(C(F)(F)F)nn(Cc4ccc(F)cc4)c3C2)CC1 [Example 12-14, 1-(1-(4-Fluorobenzyl)-3-(trifluoromethyl)-4,5-dihydro-1H-pyrazolo[3,4-c]pyridin-6(7H)-yl)-2-(4-methylpiperidin-1-yl)ethanone]",≤ 100 nM
19,"O=C(O)C12CCC(C(=O)N3CCc4c(C(F)(F)F)nn(Cc5ccc(F)cc5)c4C3)(CC1)CC2 [Example 5-11, 4-(1-(4-Fluorobenzyl)-3-(trifluoromethyl)-4,5,6,7-tetrahydro-1H-pyrazolo[3,4-c]pyridine-6-carbonyl)bicyclo[2.2.2]octane-1-carboxylic acid]",≤ 100 nM
20,"O=C(CC1CNC1)N1CCc2c(C(F)(F)F)nn(Cc3ccc(Cl)cc3F)c2C1 [Example 9-3, 2-(Azetidin-3-yl)-1-(1-(4-chloro-2-fluorobenzyl)-3-(trifluoromethyl)-4,5-dihydro-1H-pyrazolo[3,4-c]pyridin-6(7H)-yl)ethanone TFA salt]",≤ 100 nM
21,"O=C(O)CCNCC(=O)N1CCc2c(C(F)(F)F)nn(Cc3ccc(Cl)cc3F)c2C1 [Example 13-32, 3-(2-(1-(4-Chloro-2-fluorobenzyl)-3-(trifluoromethyl)-4,5-dihydro-1H-pyrazolo[3,4-c]pyridin-6(7H)-yl)-2-oxoethylamino)propanoic acid TFA salt]",≤ 100 nM
